Measured values from patent US20250099553A1, “COMPOSITION AND METHODS FOR MODULATION OF ELOVL2” (YOUHEALTH BIOTECH, LIMITED, priority 2018, published 2025).

How the values were obtained:
human fibroblast cells = test system: human fibroblast cells
Procedure: The human RPE cells were primarily derived from healthy donors. The human fibroblast cells are purchased from ATCC (WI-38, ATCC® CCL-75) human fibroblasts were maintained in Dulbecco's Modified Eagle Medium (DMEM) supplemented with 10% fetal bovine serum and 50 U/ml penicillin-streptomycin. Human RPE cells were cultured with DMEM/F-12 (1:1) supplemented with 10% fetal bovine serum and 50 U/ml penicillin-streptomycin.
RNA was extracted by RNeasy Mini Kit (QIAGEN, 74104) and the RNase-Free DNase Set (QIAGEN, 79254) was used to ensure no DNA contamination. Reverse transcription was performed by High Capacity cDNA Reverse Transcription Kit (ABI, 4368814). SYBR-qPCR was performed by Power SYBR® Green PCR Master Mix (ABI, 4367659). All primers were designed using PrimerPremier5 and synthesized from Integrated DNA Technologies.

[1] = test system: Elovl2 knock-down human RPE cells (KE); assay: Drug rescue of Elovl2 knockdown (KE) human RPE cells, AMD phenotype (immunofluorescence, qPCR); assay type: cell-based; conditions: 5 mM nicotinamide, 48 h, FIGS. 5I-5J
Procedure: For Elovl2 knockdown, lentivector (pLL3.7-shElovl2) exogenously expressing shRNA (5′-[…]-3′) was made and transfected into 293T cells (ATCC) using Lipofectamin 3000 reagent (Thermo Fisher) to obtain lentivirus. To build the Elovl2-knockdown cell line, human RPE cells (seeded a night ahead in a concentration of 5*10^5 cells/well) in a 6-well plate were infected with the lentivirus containing Elovl2-shRNA for 24h, followed by 24 h of equilibration. Drug treatments were performed at the time of 48 h post-infection. To rescue the Elovl2 knockdown cells, 10 μg/ml curcumin (Sigma, C7727) or 5 mM nicotinamide (Sigma, N0636) or DMSO were added in the cell culture medium and the cells were treated for 48 h.
Murine tissue sample were freshly collected upon perfusion, followed by overnight PFA fixation and sucrose dehydration. Human fibroblast cells, human RPE cells and murine primary cells were fixed with 4% PFA for 1 h. To perform immunofluorescence, the slide was rinsed in PBS for 5 minutes, blocked in blocking buffer (PBS with 1% BSA, 0.1% Tween-20) for 20 minutes at room temperature (RT), and incubated with primary antibody in blocking buffer for 1 hour at RT. After 3 washes with 0.1% Tween-20 in PBS, the slide was incubated with secondary antibody in blocking buffer for 1 hour at RT. The slides were mounted with DAPI-Vectashield solution (Vector laboratories). Images were taken with a confocal microscope (LSM 780). To estimate the mitochondrial conditions, human RPE cells and murine primary cells were incubated with either MitoSOX (5 uM) according to manufacturer's instructions.

Question: `OO` [H2O2, hydrogen peroxide] was tested. Which “methylation on biological aging marker Elovl2” value (human fibroblast cells; H2O2 treated human fibroblast cells, MeDip-qPCR) did it give?
Answer: Increased methylation

Question: What about the senescent markers (human fibroblast cells; H2O2 treated human fibroblast cells, FIGS. 1D-1E, 6E-6F) of the same compound?
Answer: increase of senescent markers

Question: And the “expression of Elovl2” value (human fibroblast cells; after H2O2 treatment, groups with DNMT1, DNMT3A and DNMT3B knockdown but not CHD4 knockdown, FIG. 6H)?
Answer: decreased

Question: For `NC(=O)c1cccnc1` [nicotinamide], which AMD markers [1] is on record?
Answer: reduction of AMD markers

Question: And the “expression of cellular senescence genes” value [1]?
Answer: reversed the abnormal expression of cellular senescence genes

Question: And the mitochondrial dysfunction [1]?
Answer: reduced mitochondrial dysfunction
